{"source": "patent US20220168384A1", "about": "“Anti-Bacterial Combination Therapy” (McMaster University, priority 2019, published 2022)", "key": {"[1]": {"experiment": "Qualitative assay for antibiotic-Fe3+ coloured complexes", "assay_type": "physicochemical", "settings": "stock antibiotic + FeCl3 final 10 μM; room temperature 1 h", "protocol": "[…]. Binding of iron by a compound causes spectral shifts that can detected visually. Five μL of stock concentration antibiotic was added to 5 μL of FeCl3 to a final FeCl3 concentration of 10 μM and incubated at room temperature for one hour. Negative controls without iron are indicated by a negative sign and droplets with FeCl3 are indicated with a positive sign; vehicle controls with Milli-Q H2O and DMSO were included.\nCompounds were arrayed in Nunc 96 microwell plates. Vehicle controls contained Milli-Q H2O with 1:75 dilution of each compound at a final concentration of […]. The experimental set-up contained the same components as the vehicle control, with the addition of […] FeCl3. The final volume in each well was 150 μL. The plate was incubated at room temperature for one hour and absorption spectra from 300 nm to 700 nm was read in 2 nm increments (Multiskan Go—Thermo Fisher Scientific). […]"}, "[2]": {"experiment": "UV-Vis absorption spectra assay for iron chelation", "assay_type": "physicochemical", "settings": "300 μM compound and FeCl3; 300-700 nm; 1 h", "protocol": "Equimolar concentrations of compound and FeCl3 were added in deionized H2O to a final concentration of 300 μM and a spectrum of wavelengths from 300 nm to 700 nm read after 1 h incubation at room temperature. The black dashed line is the spectrum of the compound in the absence of iron. The black solid line is the spectrum after the addition of iron. […] Chloramphenicol and ampicillin were used as negative controls. Each assay was performed at least 3 times and averaged values are shown.\nCompounds were arrayed in Nunc 96 microwell plates. Vehicle controls contained Milli-Q H2O with 1:75 dilution of each compound at a final concentration of […]. The experimental set-up contained the same components as the vehicle control, with the addition of […] FeCl3. The final volume in each well was 150 μL. The plate was incubated at room temperature for one hour and absorption spectra from 300 nm to 700 nm was read in 2 nm increments (Multiskan Go—Thermo Fisher Scientific)."}, "[3]": {"experiment": "Chrome azurol S (CAS) plate assay", "assay_type": "physicochemical", "settings": "10 μL of 2 mg/mL; room temperature 1 h"}, "[4]": {"test_system": "P. aeruginosa clinical isolates", "experiment": "Clinical isolates testing, P. aeruginosa", "assay_type": "cell-based, Pseudomonas aeruginosa", "protocol": "(§1) Clinical isolates of P. aeruginosa and A. baumannii were inoculated from −80° C. stocks into 200 μL LB broth and grown with shaking at 200 rpm, 16 h, 37° C. in Nunc 96-well plates. The overnight cultures were subcultured (1:25 dilution) into 10:90 and grown with shaking at 200 rpm, 2 h, 37° C. Vehicle controls consisted of 4 μL of DMSO, 144 μL 10:90 and 2 μL of subculture. Sterile controls consisted of 4 μL of DMSO and 146 μL 10:90. […]. The final volume of each well was 150 μL and each checkerboard was repeated at least three times. Plates were incubated with shaking at 200 rpm, 16 h, 37° C. and OD600 was measured (Multiskan Go—Thermo Fisher Scientific). The results were plotted as percent of control (wells containing only DMSO) using Prism (GraphPad).\n(§2) Clinical isolates were grown and tested as described in Example 1. Briefly, clinical isolates were inoculated from glycerol stocks stored at −80° C. into Nunc 96-well plates and grown overnight at 37° C., for 16 h with shaking in LB (200 rpm). Overnights were subcultured (1:25) into fresh 10:90 medium and grown for 2 h under the same growth conditions. Subcultures were diluted 1:75 in fresh 10:90. Compounds were diluted 1:75 to obtain the final concentration. DOXY and CLI were added at a final concentration of 1 μg/mL, CO was used at 2 μg/mL, TRO was used at 4 μg/mL, TS was used at 8.3 μg/mL, and DSX was used at 32 μg/mL. Vehicle and sterility controls were included. Plates were incubated overnight with the same conditions. The OD600 was read (Multiscan Go—Thermo Fisher Scientific), analyzed using Excel, and the data plotted using Prism (GraphPad).\n(§3) Culture conditions, checkerboard assays using P. aeruginosa PA14 and dose-response assays were performed as described in Example 1. In addition to TS, other thiopeptides tested were siomycin A (SM), thiocillin I (TC), micrococcin P1 (MC), nosiheptide (NH), berninamycin A (BER), and geninthiocin A (GEN). For dose response assays of the combinations conducted in 10:90, DSX concentration was constant at 64 μg/mL."}, "P. aeruginosa PA14 [5]": {"test_system": "P. aeruginosa PA14", "experiment": "Dose response and checkerboard assays against PA14", "assay_type": "cell-based, Pseudomonas aeruginosa", "settings": "PA14; for interaction with DSX: 2D checkerboard; for effect of 100 μM Fe^3+ on inhibitory activity: VAN + compound checkerboards; for synergy with TS: IC50 isobolograms, 10:90; for relative potency of synergy with TS: checkerboards, isobolograms and CI values", "protocol": "(§4) Checkerboard assays were set-up using Nunc 96-well plates in an 8-well by 8-well format. Two columns were allocated for vehicle controls and two columns for sterility controls. Vehicle controls contained 2 μL DMSO plus 2 μL DFP solvent for checkerboards with TS and DFP or 4 μL DMSO for TS and DSX, in 146 μL of 10:90 medium or 10% serum inoculated with PA14 or PAO1-KP as described in Growth Curves. Sterile controls contained the same components in 10:90 medium or 10% serum, without cells. Serial dilutions of TS—with 17 μg/mL being the highest final concentration—were added along the y axis of the checkerboard (increasing concentration from bottom to top) whereas serial dilutions of DFP or DSX—with 512 μg/mL being the highest final concentration—were added along the x axis (increasing concentration from left to right). The final volume of each well was 150 μL and each checkerboard was repeated at least three times. Plates were incubated and the final OD600 determined as detailed above.\nCulture conditions, growth assays, dose response and checkerboard assays using P. aeruginosa PA14 were performed as described in Example 1. Briefly, overnight cultures were grown in LB for 16 h, 37° C., 200 rpm then subcultured (1:500 dilution) into 10:90 for 6 h. Subcultures were standardized to OD600 of 0.10 and diluted 1:500 in fresh 10:90 before use. For the dose response assay, serial dilutions of compounds were added at 75 times the final concentration and diluted with 10:90 with cells to reach the desired final concentration. This was done in triplicate for technical replicates. Vehicle and sterile controls were included. The checkerboard assay was done similarly to the dose response assay but in an 8×8 format in a 96-well Nunc plate, with concentration of one drug increasing along the y-axis and the other along the x-axis. Sterility and vehicle controls were included with two columns allocated for each control. At least three biological replicates were repeated for the dose response and checkerboard assays."}, "P. aeruginosa PA14 [6]": {"test_system": "P. aeruginosa PA14", "experiment": "Checkerboards pinned to LB agar (bactericidal activity)", "assay_type": "cell-based, Pseudomonas aeruginosa", "settings": "overnight 37° C.", "protocol": "Checkerboards were pinned to LB agar plates using a sterile 96 pin tool. Plates were incubated overnight at 37° C. Independent experiments were conducted 3 times and a representative plate is shown."}, "P. aeruginosa PAO1": {"test_system": "P. aeruginosa PAO1", "experiment": "Checkerboard assays of TS with DFP, DSX or 10% serum", "assay_type": "cell-based, Pseudomonas aeruginosa", "settings": "10:90", "protocol": "Human serum (Corning) and mouse serum (Equitech-Bio) were stored at −20° C. Sera were aliquoted into 5-ml culture tubes by thawing once at 37° C. for 30 min with occasional gentle mixing. Culture tubes were frozen at −20° C. until use. To make 10% serum solutions, serum was thawed for 10 min at 37° C. and then heat inactivated at 57° C. for 30 min. Two milliliters of heat-inactivated serum were added to 18 ml of 10:90 medium and gently mixed. This 10% serum solution was used for checkerboard assays.\nas §4"}, "[7]": {"test_system": "Acinetobacter baumannii clinical isolates", "experiment": "Clinical isolates testing, A. baumannii", "assay_type": "cell-based", "settings": "10:90", "protocol": "as §1, §2, §3"}, "[8]": {"settings": "aqueous media"}, "[9]": {"settings": "Pseudomonas aeruginosa, concentration used in clinical isolate testing, read-out: ⅛^th the MIC of PA14"}}, "note": "Entries after “also recorded” stand apart in the source; their conditions may differ.", "data": [{"smiles": "CCn1cc(C(=O)O)c(=O)c2cnc(N3CCNCC3)nc21", "note": "[Pipemidic acid]", "values": [{"measurement": "colour change upon addition of FeCl3", "setting": "[1]", "value": "formed orange complexes"}, {"measurement": "absorption spectrum after addition of FeCl3", "setting": "[2]", "value": "shifted"}]}, {"smiles": "O=c1cccccc1O", "note": "[TRO, Tropolone]", "values": [{"measurement": "decolourization of CAS agar (relative affinity for iron)", "setting": "[3]", "value": "greatest decolourization"}, {"measurement": "susceptibility of C0379 compared to PA14", "setting": "[4]", "value": "less susceptible"}, {"measurement": "absorption spectrum after addition of FeCl3", "setting": "[2]", "value": "showed shifts in their absorption spectra"}, {"measurement": "interaction with DSX", "setting": "P. aeruginosa PA14 [5]", "value": "indifferent"}, {"measurement": "MIC", "setting": "P. aeruginosa PA14 [5]; [9]", "value": 4, "unit": "µg/mL"}, {"measurement": "effect of 100 μM Fe^3+ on inhibitory activity", "setting": "P. aeruginosa PA14 [5]", "value": "abrogated"}, {"measurement": "synergy with TS", "setting": "P. aeruginosa PA14 [5]; checkerboard", "value": "synergized"}, {"measurement": "relative potency of synergy with TS", "setting": "P. aeruginosa PA14 [5]", "value": "greater synergy"}, {"measurement": "mode of activity of compound alone", "setting": "P. aeruginosa PA14 [6]", "value": "bacteriostatic"}]}, {"smiles": "Cc1cc(C2CCCCC2)n(O)c(=O)c1", "note": "[CO, Ciclopirox Olamine]", "values": [{"measurement": "decolourization of CAS agar (relative affinity for iron)", "setting": "[3]", "value": "greatest decolourization"}, {"measurement": "growth of C0379, triple combinations with TS+DSX at higher concentrations of the compound", "setting": "[4]; TS 8.3 and DSX 32 μg/mL", "value": "could inhibit its growth"}, {"measurement": "absorption spectrum after addition of FeCl3", "setting": "[2]", "value": "showed shifts in their absorption spectra"}, {"measurement": "interaction with DSX", "setting": "P. aeruginosa PA14 [5]", "value": "indifferent"}, {"measurement": "one-eighth of MIC against PA14 (test concentration)", "setting": "P. aeruginosa PA14 [5]; [9]", "value": 2, "unit": "µg/mL"}, {"measurement": "effect of 100 μM Fe^3+ on inhibitory activity", "setting": "P. aeruginosa PA14 [5]", "value": "abrogated"}, {"measurement": "synergy with TS", "setting": "P. aeruginosa PA14 [5]; checkerboard", "value": "synergized"}, {"measurement": "interaction with GN", "setting": "P. aeruginosa PA14 [5]; checkerboard", "value": "antagonism"}, {"measurement": "relative potency of synergy with TS", "setting": "P. aeruginosa PA14 [5]", "value": "most potent synergy; also recorded: greater synergy"}, {"measurement": "mode of activity of compound alone", "setting": "P. aeruginosa PA14 [6]", "value": "bacteriostatic"}]}, {"smiles": "Cc1c(O)c(=O)ccn1C", "note": "[DFP, deferiprone]", "values": [{"measurement": "effect of chelator on TS activity", "setting": "P. aeruginosa PAO1; checkerboard with TS", "value": "potentiated TS activity"}, {"measurement": "activity of chelator on its own against P. aeruginosa", "setting": "P. aeruginosa PAO1; checkerboard, up to 512 μg/ml", "value": "neither chelator had activity"}, {"measurement": "colour change upon addition of FeCl3", "setting": "[1]", "value": "dark red/violet"}, {"measurement": "absorption spectrum after addition of FeCl3", "setting": "[2]", "value": "shifted"}]}, {"smiles": "Oc1c(I)cc(Cl)c2cccnc12", "note": "[CLI, Clioquinol]", "values": [{"measurement": "decolourization of CAS agar (relative affinity for iron)", "setting": "[3]", "value": "Decolourization was not observed"}, {"measurement": "growth of C0379 with CLI at 8 μg/mL", "setting": "[4]; TS 8.3 and DSX 32 μg/mL where combined", "value": "did not reduce growth below MIC"}, {"measurement": "susceptibility of A. baumannii strain C0286", "setting": "[7]", "value": "susceptible"}, {"measurement": "interaction with DSX", "setting": "P. aeruginosa PA14 [5]", "value": "antagonism"}, {"measurement": "one-eighth of MIC against PA14 (test concentration)", "setting": "P. aeruginosa PA14 [5]; [9]", "value": 1, "unit": "µg/mL"}, {"measurement": "effect of 100 μM Fe^3+ on inhibitory activity", "setting": "P. aeruginosa PA14 [5]", "value": "abrogated"}, {"measurement": "synergy with TS", "setting": "P. aeruginosa PA14 [5]; checkerboard", "value": "synergized"}, {"measurement": "relative potency of synergy with TS", "setting": "P. aeruginosa PA14 [5]", "value": "most potent synergy"}, {"measurement": "mode of activity of compound alone", "setting": "P. aeruginosa PA14 [6]", "value": "bacteriostatic"}, {"measurement": "concentrations at which the compound precipitated", "setting": "[8]", "value": "above 8 μg/mL"}]}, {"smiles": "O=C(O)c1cn(C2CC2)c2cc(N3CCNCC3)c(F)cc2c1=O", "note": "[CIP, ciprofloxacin]", "values": [{"measurement": "colour change upon addition of FeCl3", "setting": "[1]", "value": "formed orange complexes"}, {"measurement": "synergy with DSX", "setting": "P. aeruginosa PA14 [5]; checkerboard of DSX with antibiotic", "value": "No synergy"}]}, {"smiles": "COc1cc(Cc2cnc(N)nc2N)cc(OC)c1OC", "note": "[Trimethoprim]", "values": [{"measurement": "colour change upon addition of FeCl3", "setting": "[1]", "value": "turned golden-yellow"}]}, {"smiles": "CO/N=C(\\C(=O)N[C@@H]1C(=O)N2C(C(=O)O)=C(CSc3nc(=O)c(=O)[nH]n3C)CS[C@H]12)c1csc(N)n1", "note": "[Ceftriaxone, ceftriaxone]", "values": [{"measurement": "colour change upon addition of FeCl3", "setting": "[1]", "value": "turned red"}, {"measurement": "absorption spectrum after addition of FeCl3", "setting": "[2]", "value": "did not change"}]}]}
